In patent US20260285816A1, “Piperazinyl-Modified Quinazolinyl-Aryl Urea Derivative, And Preparation Method And Use Thereof” (Guangxi Normal University, priority 2025, published 2026):
Where two headings read alike, the source gives them in different places.

What was measured:
Format in all cases: cell-based, human
Hep G2 cells = experiment: CCK-8 anti-proliferative assay, Hep G2; settings: Homo sapiens, HepG2; Table 12; co-incubated 48 h; read-out: Anti-proliferative activity (IC50 ± standard deviation) Hep G2
Outline: (§1)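 Logarithmic-phase cells are plated at 5,000 cells per well and incubated at 37° C. with 5% CO2. At 70% confluency, compound is added at nine final concentrations from 1 to 30 μM. After exposure, CCK-8 is added and OD at 450 nm measured to calculate IC50.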

HeLa cells = experiment: CCK-8 anti-proliferative assay, HeLa; settings: Homo sapiens, HeLa; Table 12; co-incubated 48 h; read-out: Anti-proliferative activity (IC50 ± standard deviation) HeLa
Outline: (§2)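 Cells seeded at 5,000/well and grown at 37° C., 5% CO2 to 70% confluency, then treated with compound at final 1, 2, 4, 6, 8, 12, 16, 24 and 30 μM in triplicate.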

A549 cells = experiment: CCK-8 anti-proliferative assay, A549; settings: Homo sapiens, A549; Table 13; co-incubated 48 h; read-out: Anti-proliferative activity (IC50 ± standard deviation) A549
Outline: as §2

[1] = tested on: embryonic lung fibroblasts (WI-38); experiment: CCK-8 anti-proliferative assay, normal cells WI-38; settings: Homo sapiens, WI-38, Table 13, co-incubated 48 h, read-out: Anti-proliferative activity (IC50 ± standard deviation) WI-38
Outline: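 Absorbance at 450 nm after CCK-8 labelling (1–4 h, varying by cell line) gave inhibition relative to untreated control, from which IC50 values were derived. Compounds were applied at final concentrations of 1 to 30 μM in triplicate wells once cultures reached 70% confluency, with co-incubation for designated durations.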

MG-63 cells = experiment: CCK-8 anti-proliferative assay, MG-63; settings: Homo sapiens, MG-63
Outline: as §1

143B cells = experiment: CCK-8 anti-proliferative assay, 143B; settings: Homo sapiens, 143B
Outline: as §1

[2] = tested on: immortalized ureteral epithelial cells (SV-HUC-1); experiment: CCK-8 anti-proliferative assay, normal cells SV-HUC-1; settings: Homo sapiens, SV-HUC1; Table 13; normal cells; co-incubated 48 h; read-out: Anti-proliferative activity (IC50 ± standard deviation) SV-HUC-1
Outline: as §2

T24 cells = experiment: CCK-8 anti-proliferative assay, T24; settings: Homo sapiens, T-24; Table 10; co-incubated 48 h; read-out: Anti-proliferative activity (IC50 ± standard deviation) T24
Outline: as §1

J82 cells = experiment: CCK-8 anti-proliferative assay, J82; settings: Homo sapiens, J82; Table 10; co-incubated 48 h; read-out: Anti-proliferative activity (IC50 ± standard deviation) J82
Outline: as §2

MCF-7 cells = experiment: CCK-8 anti-proliferative assay, MCF-7; settings: Homo sapiens, MCF7; Table 12; co-incubated 48 h; read-out: Anti-proliferative activity (IC50 ± standard deviation) MCF-7
Outline: as §2

SK-OV-3 cells = experiment: CCK-8 anti-proliferative assay, SK-OV-3; settings: Homo sapiens, SK-OV-3; Table 12; co-incubated 48 h; read-out: Anti-proliferative activity (IC50 ± standard deviation) SK-OV-3
Outline: as §2

5637 cells = experiment: CCK-8 anti-proliferative assay, 5637; settings: Homo sapiens; Table 10; co-incubated 48 h; read-out: Anti-proliferative activity (IC50 ± standard deviation) 5637
Outline: as §2

UM-UC-3 cells = experiment: CCK-8 anti-proliferative assay, UM-UC-3; settings: Homo sapiens, UMUC3; Table 10; co-incubated 48 h; read-out: Anti-proliferative activity (IC50 ± standard deviation) UM-UC-3
Outline: as §2

BxPC-3 cells = experiment: CCK-8 anti-proliferative assay, BxPC-3; settings: Homo sapiens, BXPC-3; Table 11; co-incubated 48 h; read-out: Anti-proliferative activity (IC50 ± standard deviation) BxPC-3
Outline: as §1

PANC-1 cells = experiment: CCK-8 anti-proliferative assay, PANC-1; settings: Homo sapiens, PANC-1; Table 11; co-incubated 48 h; read-out: Anti-proliferative activity (IC50 ± standard deviation) PANC-1
Outline: as §1

[3] = Table 11, co-incubated 48 h, read-out: Anti-proliferative activity (IC50 ± standard deviation) MG-63
[4] = Table 11, co-incubated 48 h, read-out: Anti-proliferative activity (IC50 ± standard deviation) 143B

Row | SMILES | IC50 (Hep G2 cells) [µM] | IC50 (HeLa cells) [µM] | IC50 (A549 cells) [µM] | IC50 [1] [µM] | IC50 (MG-63 cells; [3]) [µM] | IC50 (143B cells; [4]) [µM] | IC50 [2] [µM] | IC50 (T24 cells) [µM] | IC50 (J82 cells) [µM] | IC50 (MCF-7 cells) [µM] | IC50 (SK-OV-3 cells) [µM] | IC50 (5637 cells) [µM] | IC50 (UM-UC-3 cells) [µM] | IC50 (BxPC-3 cells) [µM] | IC50 (PANC-1 cells) [µM] | IC50 (MG-63 cells; read-out: IC50 values, osteosarcoma cells MG-63) [µM] | IC50 (143B cells; read-out: IC50 values, osteosarcoma cells 143B) [µM]
1 | COc1cc2ncnc(NCc3cccc(NC(=O)Nc4ccccc4Cl)c3)c2cc1OCCCCCCN1CCC(CN2CCN(c3ccccn3)CC2)CC1 [Compound 8-2o, N-(3-(((7-methoxy-6-((6-(4-((4-(pyridin-2-yl)piperazin-1-yl)methyl)piperidin-1-yl)hexyl)oxy)quinazolin-4-yl)amino)methyl)phenyl)-N′-(2-chlorophenyl)urea] | 16 ± 0.96 | 13.7 ± 1.29 | 27.2 ± 2.04 | 12.7 ± 0.89 | 9.92 ± 0.82 | 13.8 ± 0.82 | 16.2 ± 0.84 | 7.93 ± 0.22 | 16.7 ± 1.52 | 16.2 ± 1.07 | 11.9 ± 0.94 | 12.4 ± 0.89 | 15.9 ± 0.95 | 22.4 ± 1.27 | > 30 |  | 
2 | COc1cc2ncnc(NCc3cccc(NC(=O)Nc4ccc(Cl)cc4)c3)c2cc1OCCCCCCN1CCC(CN2CCN(c3ccccn3)CC2)CC1 [Compound 8-2q, N-(3-(((7-methoxy-6-((6-(4-((4-(pyridin-2-yl)piperazin-1-yl)methyl)piperidin-1-yl)hexyl)oxy)quinazolin-4-yl)amino)methyl)phenyl)-N′-(4-chlorophenyl)urea] | 10.7 ± 0.98 | 7.72 ± 0.34 | 13.3 ± 0.86 | 7.36 ± 0.23 | 8.61 ± 0.53 | 7.08 ± 0.85 | 9.49 ± 0.73 | 6.76 ± 0.38 | 6.69 ± 0.53 | 6.44 ± 0.71 | 5.62 ± 0.47 | 4.32 ± 0.33 | 7.19 ± 0.47 | 13.2 ± 0.78 | 15.2 ± 0.67 |  | 
3 | COc1cc2ncnc(NCc3cccc(NC(=O)Nc4ccc(Cl)cc4Cl)c3)c2cc1OCCCCCCN1CCC(CN2CCN(c3ccccn3)CC2)CC1 [Compound 8-2r, N-(3-(((7-methoxy-6-((6-(4-((4-(pyridin-2-yl)piperazin-1-yl)methyl)piperidin-1-yl)hexyl)oxy)quinazolin-4-yl)amino)methyl)phenyl)-N′-(2,4-dichlorophenyl)urea] | 7.02 ± 0.49 | 7.37 | 12.3 ± 0.92 | 7.72 ± 0.39 | 7.02 ± 0.58 | 8.91 ± 0.77 | 8.41 ± 0.43 | 5.12 ± 0.39 | 4.73 ± 0.38 | 11.4 ± 0.76 | 11.3 ± 0.83 | 6.29 ± 0.37 | 11.7 ± 0.96 | 10.3 ± 0.93 | 14.6 ± 0.78 |  | 
4 | COc1cc2ncnc(NCc3cccc(NC(=O)Nc4c(Cl)cc(Cl)cc4Cl)c3)c2cc1OCCCCCCN1CCC(CN2CCN(c3ccccn3)CC2)CC1 [Compound 8-2s, N-(3-(((7-methoxy-6-((6-(4-((4-(pyridin-2-yl)piperazin-1-yl)methyl)piperidin-1-yl)hexyl)oxy)quinazolin-4-yl)amino)methyl)phenyl)-N′-(2,4,6-trichlorophenyl)urea] | 4.91 ± 0.55 | 7.99 ± 0.68 | 7.32 ± 0.85 | 11.5 ± 0.62 | 11 ± 0.97 | 5.94 ± 0.43 | 8.36 ± 1.62 | 7.73 ± 0.47 | 4.62 ± 0.33 | 5.88 ± 0.57 | 6.02 ± 0.39 | 4.87 ± 0.29 | 10 ± 0.73 | 9.72 ± 0.95 | 10.4 ± 0.62 |  | 
5 | COc1cc2ncnc(NCc3cccc(NC(=O)Nc4ccc(C(F)(F)F)cc4)c3)c2cc1OCCCCCCN1CCC(CN2CCN(c3ccccn3)CC2)CC1 [Compound 8-2t, N-(3-(((7-methoxy-6-((6-(4-((4-(pyridin-2-yl)piperazin-1-yl)methyl)piperidin-1-yl)hexyl)oxy)quinazolin-4-yl)amino)methyl)phenyl)-N′-(4-(trifluoromethyl)phenyl)urea] | 4.76 ± 0.45 | 7.29 ± 0.24 | 11.8 ± 0.88 | 10.6 ± 0.64 | 11.7 ± 0.92 | 9.42 ± 0.56 | 8.92 ± 0.49 | 6.47 ± 0.25 | 5.46 ± 0.41 | 5.94 ± 0.36 | 13.3 ± 0.84 | 7.32 ± 0.57 | 6.79 ± 0.41 | 11.3 ± 0.73 | 15.6 ± 0.93 |  | 
6 | COc1cc2ncnc(NCc3cccc(NC(=O)Nc4ccc(F)c(C(F)(F)F)c4)c3)c2cc1OCCCCCCN1CCC(CN2CCN(c3ccccn3)CC2)CC1 [Compound 8-2u] | 14.3 ± 1.33 | > 30 | 12.4 ± 1.43 | 15.9 ± 0.85 | 16 ± 1.07 | 13.6 ± 0.92 | 23.1 ± 0.97 | 14.1 ± 0.77 | 12.9 ± 0.66 | 9.92 ± 0.86 | 15.6 ± 0.92 | 13.2 ± 0.78 | 11.9 ± 0.66 | 25.4 ± 1.57 | > 30 |  | 
7 | COc1cc2ncnc(NCc3cccc(NC(=O)Nc4ccc(Cl)c(C(F)(F)F)c4)c3)c2cc1OCCCCCCN1CCC(CN2CCN(c3ccccn3)CC2)CC1 [Compound 8-2v] | 4.97 ± 0.35 | 6.98 ± 0.83 | 7.98 ± 0.92 | 8.71 ± 0.52 | 8.02 ± 0.79 | 6.84 ± 0.59 | 7.33 ± 0.46 | 4.73 ± 0.42 | 11.1 ± 0.69 | 4.41 ± 0.27 | 5.49 ± 0.63 | 11.8 ± 0.95 | 6.77 ± 0.69 | 14.9 ± 1.28 | 14.9 ± 0.79 |  | 
8 | COc1cc2ncnc(NCc3cccc(NC(=O)Nc4cc(C(F)(F)F)cc(C(F)(F)F)c4)c3)c2cc1OCCCCCCN1CCC(CN2CCN(c3ccccn3)CC2)CC1 [Compound 8-2w, N-(3-(((7-methoxy-6-((6-(4-((4-(pyridin-2-yl)piperazin-1-yl)methyl)piperidin-1-yl)hexyl)oxy)quinazolin-4-yl)amino)methyl)phenyl)-N′-(3,5-bis(trifluoromethyl)phenyl)urea] | 5.87 ± 0.49 | 6.42 ± 0.56 | 9.69 ± 0.72 | 9.49 ± 0.42 | 8.33 ± 0.81 | 8.04 ± 0.45 | 7.19 ± 0.68 | 5.92 ± 0.54 | 7.84 ± 0.52 | 5.59 ± 0.46 | 5.16 ± 0.27 | 13.1 ± 0.67 | 6.42 ± 0.16 | 15.5 ± 0.92 | 15.1 ± 0.66 |  | 
9 | COc1cc2ncnc(NCc3cccc(NC(=O)NCc4ccccc4)c3)c2cc1OCCCCCCN1CCC(CN2CCN(c3ccccn3)CC2)CC1 [Compound 8-2y, N-(3-(((7-methoxy-6-((6-(4-((4-(pyridin-2-yl)piperazin-1-yl)methyl)piperidin-1-yl)hexyl)oxy)quinazolin-4-yl)amino)methyl)phenyl)-N′-benzylurea] | 5.92 ± 0.66 | 5.02 ± 0.49 | 7.01 ± 0.62 | 9.89 ± 0.23 | 5.91 ± 0.46 | 6.74 ± 0.52 | 8.96 ± 0.67 | 4.07 ± 0.19 | 4.13 ± 0.32 | 5.71 ± 0.54 | 6.23 ± 0.56 | 4.92 ± 0.31 | 3.92 ± 0.24 | 11 ± 0.85 | 7.36 ± 0.42 |  | 
10 | COc1cc2ncnc(NCc3cccc(NC(=O)NC4CCCCC4)c3)c2cc1OCCCCCCN1CCC(CN2CCN(c3ccccn3)CC2)CC1 [Compound 8-2z, N-(3-(((7-methoxy-6-((6-(4-((4-(pyridin-2-yl)piperazin-1-yl)methyl)piperidin-1-yl)hexyl)oxy)quinazolin-4-yl)amino)methyl)phenyl)-N′-cyclohexylurea] | 5.23 ± 0.52 | 6.39 ± 0.68 | 11.1 ± 0.83 | 10.9 ± 0.59 | 4.05 ± 0.34 | 4.77 ± 0.26 | 8.02 ± 0.81 | 5.33 ± 0.52 | 3.93 ± 0.22 | 6.32 ± 0.49 | 8.69 ± 0.72 | 3.96 ± 0.19 | 3.71 ± 0.19 | 10.3 ± 0.93 | 14.9 ± 0.98 | < 5 | < 5
